Assay results: patent US5650441A, “Method of assaying CD4 glycoproteins by using certain azo dyes” (The United States of America, as represented by the …, priority 1994, dated 1997)
One block for each molecule: values may come before it.

How the values were obtained:
[1] = Binding to serum proteins; assay type: in vitro ADME; settings: not shown
[2] = test system: HIV isolate LAV-1BR in PHA stimulated human PBL; assay: microbe, parasite or virus in culture; assay type: cell-based; settings: for CPM RT: [3H]-TTP incorporated by reverse transcriptase, DMSO control 6338
Procedure: (§1) The effect of various drugs on growth of HIV isolate LAV-1BR in PHA stimulated human PBL was measured using two assays. Reverse transcriptase activity was measured in disrupted virions from the cell free supernatant as previously described (Anand et al, "Interaction between rifabutin and human immunodeficiency virus type-1: inhibition of replication, cytopathic effect and reverse transcriptase in vitro," Antimicrob. Agents Chemother. 32 684-688 (1988)).

[3] = test system: HIV isolate LAV-1BR in PHA stimulated human PBL; assay: Production of intracellular HIV p24 measured by ELISA; assay type: cell-based; settings: for pg/ml HIV p24: intracellular p24, ELISA, DMSO control 1222
Procedure: as §1

[4] = Viability of PBL after 72 hr culture (propidium iodide exclusion); assay type: cell-based, human; settings: human, PBL, 72 hr culture, untreated 90, read-out: % Viable Cells
Procedure: (§2) The effect of compounds on the viability of PBL was determined after culturing PBL for 72 hr at 37° C. Some cells were stimulated with 1 μl/ml of anti-T-cell receptor antibody for this time period. Cells were then washed 1× in PBS and resuspended in PBS with 3 μg/ml propidium iodide. After 10 min incubation cells were analyzed by flow cytometry. Live cells were defined as those excluding propidium iodide.

[5] = Solubility in aqueous solutions; assay type: physicochemical; settings: concentrations needed for efficacy in the presence of serum
αCD8 binding to PBL = assay: Specificity: binding of αCD8-FITC to PBL; design: species or system human; settings: for % Control Binding αCD8: αCD8-FITC binding in PBS, 10 min
Procedure: (§3) Human peripheral blood lymphocytes (PBL) were prepared by density gradient centrifugation as previously described (Weaver et al., 1990). The effect of drugs on the binding of anti-CD4-FITC (αCD4), anti-CD3-FITC (αCD3), anti-CD8-FITC (αCDS), or HIV coat protein rgp120 was measured as previously described (Weaver et al., 1990). Briefly, cells were treated with a drug (10' RT) and then FITC labeled antibody or rgp120 followed by anti-rgp120-FITC. Binding was measured by quantitating cell bound fluorescence using flow cytometry. Some binding assays were run in phenol red free RPMI 1640/5% serum instead of the usual PBS to determine effectiveness under cell culture conditions.
(§4) We have analyzed the specificity of these compounds by testing their ability to interfere with the binding of two other monoclonal antibodies, αCD3 and αCD8. […] The increase in binding of αCD3 on Direct Red 79 treated cells may reflect nonspecific binding.

[6] = target: T1, binding of HIV rgp120 to CD4 on peripheral blood lymphocytes (Homo sapiens, UniProt P01730); assay: Inhibition of HIV rgp120 binding to PBL, detected with anti-rgp120-FITC, flow cytometry; settings: 10 min, rgp120 binding detected by αrgp120-FITC in PBS, % logarithmic mean channel number
T1 construct: Human peripheral blood lymphocytes (PBL) were prepared by density gradient centrifugation; endogenous in cells; host or cells: human peripheral blood lymphocytes (PBL)
Procedure: as §3
The results shown in Table 2 confirm that the three dyes selected on the basis of their interference with αCD4 binding can also block binding of rgp120. Their relative efficacy appears to be similar in both assays.

CD4 on PBL = target: T2, CD4 on PBL (Homo sapiens, UniProt P01730); assay: Inhibition of binding of αCD4-FITC (anti-Leu3a) to PBL, flow cytometry; settings: for remaining activity at 7 µM: compound 7 μM
T2 construct: Human peripheral blood lymphocytes (PBL) were prepared by density gradient centrifugation; endogenous in cells; host or cells: human peripheral blood lymphocytes (PBL)
Procedure: as §3
Since anti-Leu3a (αCD4) and rgp120 bind to the same site on the CD4 molecule, interference in binding of αCD4 can be used to screen compounds for possible anti-HIV activity. EB or ATA are used as positive controls since they have been shown previously to block eCD4 and rpg120 binding (Weaver et al, "Polyionic compounds selectively alter availability of CD4 receptors for HIV coat protein rgp120," AIDS Res. Human Retrovir. 6 1125-1130 (1990)). […] Six of the dyes tested show significant ability to block αCD4 binding. Three compounds, Acid Blue 116, Acid Red 115, and Direct Red 79 were selected for more complete analysis.

αCD3 binding to PBL = target: T3, αCD3 binding to PBL (Homo sapiens, UniProt P07766); assay: Specificity: binding of αCD3-FITC to PBL
T3 construct: Human peripheral blood lymphocytes (PBL) were prepared by density gradient centrifugation; endogenous in cells; host or cells: human peripheral blood lymphocytes (PBL)
T3 sequence (P07766 23-207): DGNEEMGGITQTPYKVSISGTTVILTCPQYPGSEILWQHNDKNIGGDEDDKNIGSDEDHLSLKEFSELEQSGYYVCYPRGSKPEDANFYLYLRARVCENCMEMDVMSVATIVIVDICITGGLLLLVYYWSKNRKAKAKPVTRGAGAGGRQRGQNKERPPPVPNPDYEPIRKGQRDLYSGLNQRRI
T3 sequence (P04234 22-171 partner): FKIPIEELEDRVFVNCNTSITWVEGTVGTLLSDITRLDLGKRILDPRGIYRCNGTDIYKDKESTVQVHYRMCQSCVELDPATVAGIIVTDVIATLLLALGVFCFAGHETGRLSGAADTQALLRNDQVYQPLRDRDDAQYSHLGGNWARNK
T3 sequence (P09693 23-182 partner): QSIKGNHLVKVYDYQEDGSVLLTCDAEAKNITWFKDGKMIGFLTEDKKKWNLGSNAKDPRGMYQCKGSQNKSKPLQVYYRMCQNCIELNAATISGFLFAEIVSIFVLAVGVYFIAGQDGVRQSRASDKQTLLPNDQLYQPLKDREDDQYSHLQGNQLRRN
T3 sequence (P20963 22-164 partner): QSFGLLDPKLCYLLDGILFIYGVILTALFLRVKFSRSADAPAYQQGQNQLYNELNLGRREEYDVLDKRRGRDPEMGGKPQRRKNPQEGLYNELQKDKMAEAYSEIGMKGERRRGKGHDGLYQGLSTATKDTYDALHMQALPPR
Procedure: as §3, §4

anti-TCR stimulated PBL = assay: Viability of PBL after 72 hr culture with anti-TCR stimulation (propidium iodide exclusion); assay type: cell-based, human; settings: Table 5
Procedure: as §2

[7] = as above; assay type: cell-based, human; settings: human, anti-tcr stimulated pbl; PBL, 72 hr culture with anti-TCR stimulation, 100 μM; untreated 78; read-out: % Viable Cells
Procedure: as §2

PBL = assay: Viability of PBL after 72 hr culture (propidium iodide exclusion); assay type: cell-based, human; settings: 72 hr of continuous culture
Procedure: as §2

[8] = 10 min, αCD4-FITC binding to PBL in PBS, % logarithmic mean channel number, read-out: % Control Binding
[9] = 10 min, αCD4-FITC binding to PBL in PBS, % logarithmic mean channel number, compound 10 μM, read-out: % Control Binding

remaining activity at 7 µM (CD4 on PBL; [8]): 6%
SMILES: Cc1cc(-c2cc(C)c(N=Nc3c(O)ccc4ccccc34)cc2S(=O)(=O)O)c(S(=O)(=O)O)cc1N=Nc1c(O)ccc2ccccc12 [Acid Red 89, C.I. Acid Red 89]

% Control Binding (CD4 on PBL; αCD4-FITC binding to PBL in PBS, % logarithmic mean channel number, compound 10 μM): 1%
SMILES: COc1cc(-c2ccc(N=Nc3ccc4c(S(=O)(=O)[O-])cc(S(=O)(=O)[O-])c(N)c4c3O)c(OC)c2)ccc1N=Nc1ccc2c(S(=O)(=O)[O-])cc(S(=O)(=O)[O-])c(N)c2c1O.[Na+].[Na+].[Na+].[Na+] [Direct Blue 1, C.I. Direct Blue 1]

remaining activity at 10 µM (CD4 on PBL; [9]): 70%
SMILES: Nc1ccc2cc(S(=O)(=O)O)cc(O)c2c1N=Nc1ccc(NC(=O)Nc2ccc(N=Nc3c(N)ccc4cc(S(=O)(=O)O)cc(O)c34)c(S(=O)(=O)O)c2)cc1S(=O)(=O)O [Direct Red 75, C.I. Direct Red 75]

remaining activity at 50 µM (CD4 on PBL; 10 min, αCD4-FITC binding to PBL in PBS, % logarithmic mean channel number, compound 50 μM, read-out: % Control Binding): 42%
SMILES: Cc1cc(NC(=O)Nc2ccc(N=Nc3cc(S(=O)(=O)O)c4cccc(S(=O)(=O)O)c4c3)c(C)c2)ccc1N=Nc1cc(S(=O)(=O)O)c2cccc(S(=O)(=O)O)c2c1 [Direct Yellow 50, reference compound]

remaining activity at 5 µM (CD4 on PBL; 10 min, αCD4-FITC binding to PBL in PBS, % logarithmic mean channel number, compound 5 μM, read-out: % Control Binding): 102%
SMILES: O=S(=O)(O)c1cccc(N=Nc2c(O)ccc3cc(S(=O)(=O)O)cc(S(=O)(=O)O)c23)c1 [FD1]

Further lines, the molecule ahead of its results:

SMILES: O=C(O)C1=CC(=C(c2ccc(O)c(C(=O)O)c2)c2ccc(O)c(C(=O)O)c2)C=CC1=O [ATA, aurin tricarboxlyic acid, reference compound]
binding to serum proteins (in words) [1]: does not bind to serum proteins
inhibition at 1 µM ([2]; Human immunodeficiency virus 1, 144 h, HIV reverse transcriptase activity, six day culture, 1 μM): 97%
CPM RT ([2]; six day culture, 1 μM): 109 CPM
pg/ml HIV p24 ([3]; 0.25 μg/ml): 111 pg/mL
pg/ml HIV p24 ([3]; 2.5 μg/ml): 0 pg/mL
viability at 72 h, 10 µM ([4]; 10 μM): 86%

SMILES: O=S(=O)(O)c1ccc2c(N=Nc3ccccc3)ccc(N=Nc3ccc(Nc4ccccc4)c4c(S(=O)(=O)O)cccc34)c2c1 [Acid Blue 116, C.I. Acid Blue 116]
solubility in aqueous solutions (in words) [5]: near their limits of solubility
reduction of binding of αCD8 (fraction) (αCD8 binding to PBL; Table 3): about 1/2
% Control Binding αCD8 (αCD8 binding to PBL; compound 4 μM): 54%
remaining rgp120 binding (% of control) at 7 µM ([6]; compound 7 μM): 9%
remaining activity at 4 µM (CD4 on PBL; 10 min, Table 3, αCD4-FITC binding in PBS, compound 4 μM, read-out: % Control Binding αCD4): 1%
remaining activity at 7 µM (CD4 on PBL; [8]): 0%
αCD3 binding, % of control at 4 µM (αCD3 binding to PBL; 10 min, αCD3-FITC binding in PBS, compound 4 μM): 44%
reduction of binding of αCD3 (fraction) (αCD3 binding to PBL; Table 3): about 1/2

SMILES: Cc1ccccc1N=Nc1ccc(N=Nc2c(O)c(S(=O)(=O)[O-])cc3cc(S(=O)(=O)[O-])ccc23)c(C)c1.[Na+].[Na+] [Acid Red 115, C.I. Acid Red 115]
solubility in aqueous solutions (in words) [5]: near their limits of solubility
% Control Binding αCD8 (αCD8 binding to PBL; compound 6 μM): 90%
% Control Binding ([6]; compound 6 μM): 10%
% Control Binding αCD4 (CD4 on PBL; Table 3, αCD4-FITC binding in PBS, compound 6 μM, 10 min): 2%
% Control Binding (CD4 on PBL; αCD4-FITC binding to PBL in PBS, % logarithmic mean channel number, compound 6 μM, 10 min): 2%
effect on binding of αCD3 (in words) (αCD3 binding to PBL; Table 3): interferes with αCD3
% Control Binding αCD3 (αCD3 binding to PBL; αCD3-FITC binding in PBS, compound 6 μM, 10 min): 41%

SMILES: COc1cc(N=Nc2cc(S(=O)(=O)O)cc3cc(S(=O)(=O)O)cc(O)c23)c(C)cc1NC(=O)Nc1cc(C)c(N=Nc2cc(S(=O)(=O)O)cc3cc(S(=O)(=O)O)cc(O)c23)cc1OC [Direct Red 79, C.I. Direct Red 79]
effect on binding of αCD8 (in words) (αCD8 binding to PBL; Table 3): does not affect binding
% Control Binding αCD8 (αCD8 binding to PBL; compound 20 μM): 106%
inhibition at 100 µM ([2]; Human immunodeficiency virus 1, 144 h, HIV reverse transcriptase activity, six day culture, 100 μM): 97%
CPM RT ([2]; six day culture, 100 μM): 145 CPM
production of reverse transcriptase activity (in words) ([2]; after six days of culture): strongly inhibit
p24 production (in words) ([3]; intracellular HIV p24 protein): strongly decrease
pg/ml HIV p24 ([3]; 5 μg/ml): 333 pg/mL
remaining rgp120 binding (% of control) at 10 µM ([6]; compound 10 μM): 30%
remaining activity at 20 µM (CD4 on PBL; 10 min, Table 3, αCD4-FITC binding in PBS, compound 20 μM, read-out: % Control Binding αCD4): 22%
remaining activity at 10 µM (CD4 on PBL; [9]): 13%
effect on the proliferation of αTCR stimulated PBL (in words) (anti-TCR stimulated PBL): limited effect
viability at 72 h, 100 µM [7]: 54%
effect on the viability of PBL (in words) (PBL): no effect
viability at 72 h, 400 µM ([4]; 400 μM): 89%
αCD3 binding, % of control at 20 µM (αCD3 binding to PBL; 10 min, αCD3-FITC binding in PBS, compound 20 μM): 124%
effect on binding of αCD3 (in words) (αCD3 binding to PBL; Table 3): does not affect binding

SMILES: O=C(Nc1ccc(N=Nc2ccc(O)c(C(=O)O)c2)cc1)Nc1ccc(N=Nc2ccc(O)c(C(=O)O)c2)cc1 [Direct Yellow 26, C.I. Direct Yellow 26]
remaining activity at 12 µM (CD4 on PBL; 10 min, αCD4-FITC binding to PBL in PBS, % logarithmic mean channel number, compound 12 μM, read-out: % Control Binding): 84%
